Here are results for 14 molecules from patent publication US12448389B2, “BRM targeting compounds and associated methods of use” (Prelude Therapeutics Incorporated, priority 2020, dated 2025).

For experiment [1], the target named is T1, SMARCA2-HiBiT (Homo sapiens, UniProt P51531).
T1 construct: SMARCA2-HiBiT knock-in Hela monoclonal cell (CS302366); host or cells: HeLa monoclonal knock-in line (CRISPR HiBiT knock-in at the endogenous locus, heterozygous)
Description: SMARCA2 HiBiT degradation assay in HeLa cells. The class given is cell-based. Particulars: 18 hours incubation; for DC50: read-out: HeLa_HiBit-SM2 DC50; for Dmax: HeLa, read-out: HeLa-HiBit-SM2 Dmax (%). The gist of the method:
(§1)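 HeLa monoclonal lines with heterozygous HiBiT knock-in were seeded at 2500 cells/well in EMEM with 10% FBS and treated with compound for 18 h at 37 °C. Remaining tagged protein was measured by Nano-Glo HiBiT lytic luminescence after 30–60 min at RT, and values came from curve fitting.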
A general note: HiBiT is a short tag that completes a luciferase, so light tracks the accessible tagged protein.

The target in experiment [2] is T2, SMARCA4-HiBiT (Homo sapiens, UniProt P51532).
T2 construct: SMARCA4-HiBiT knock-in Hela monoclonal cell (CS3023226); host or cells: HeLa monoclonal knock-in line (CRISPR HiBiT knock-in at the endogenous locus, heterozygous)
Briefly: SMARCA4 HiBiT degradation assay in HeLa cells. The class given is cell-based. The note with it: 18 hours incubation; for DC50: read-out: HeLa-HiBit-SM4 DC50; for Dmax: HeLa, read-out: HeLa-HiBit-SM4 Dmax (%). The gist of the method:
as §1

T1 sequence (P51531 whole entry): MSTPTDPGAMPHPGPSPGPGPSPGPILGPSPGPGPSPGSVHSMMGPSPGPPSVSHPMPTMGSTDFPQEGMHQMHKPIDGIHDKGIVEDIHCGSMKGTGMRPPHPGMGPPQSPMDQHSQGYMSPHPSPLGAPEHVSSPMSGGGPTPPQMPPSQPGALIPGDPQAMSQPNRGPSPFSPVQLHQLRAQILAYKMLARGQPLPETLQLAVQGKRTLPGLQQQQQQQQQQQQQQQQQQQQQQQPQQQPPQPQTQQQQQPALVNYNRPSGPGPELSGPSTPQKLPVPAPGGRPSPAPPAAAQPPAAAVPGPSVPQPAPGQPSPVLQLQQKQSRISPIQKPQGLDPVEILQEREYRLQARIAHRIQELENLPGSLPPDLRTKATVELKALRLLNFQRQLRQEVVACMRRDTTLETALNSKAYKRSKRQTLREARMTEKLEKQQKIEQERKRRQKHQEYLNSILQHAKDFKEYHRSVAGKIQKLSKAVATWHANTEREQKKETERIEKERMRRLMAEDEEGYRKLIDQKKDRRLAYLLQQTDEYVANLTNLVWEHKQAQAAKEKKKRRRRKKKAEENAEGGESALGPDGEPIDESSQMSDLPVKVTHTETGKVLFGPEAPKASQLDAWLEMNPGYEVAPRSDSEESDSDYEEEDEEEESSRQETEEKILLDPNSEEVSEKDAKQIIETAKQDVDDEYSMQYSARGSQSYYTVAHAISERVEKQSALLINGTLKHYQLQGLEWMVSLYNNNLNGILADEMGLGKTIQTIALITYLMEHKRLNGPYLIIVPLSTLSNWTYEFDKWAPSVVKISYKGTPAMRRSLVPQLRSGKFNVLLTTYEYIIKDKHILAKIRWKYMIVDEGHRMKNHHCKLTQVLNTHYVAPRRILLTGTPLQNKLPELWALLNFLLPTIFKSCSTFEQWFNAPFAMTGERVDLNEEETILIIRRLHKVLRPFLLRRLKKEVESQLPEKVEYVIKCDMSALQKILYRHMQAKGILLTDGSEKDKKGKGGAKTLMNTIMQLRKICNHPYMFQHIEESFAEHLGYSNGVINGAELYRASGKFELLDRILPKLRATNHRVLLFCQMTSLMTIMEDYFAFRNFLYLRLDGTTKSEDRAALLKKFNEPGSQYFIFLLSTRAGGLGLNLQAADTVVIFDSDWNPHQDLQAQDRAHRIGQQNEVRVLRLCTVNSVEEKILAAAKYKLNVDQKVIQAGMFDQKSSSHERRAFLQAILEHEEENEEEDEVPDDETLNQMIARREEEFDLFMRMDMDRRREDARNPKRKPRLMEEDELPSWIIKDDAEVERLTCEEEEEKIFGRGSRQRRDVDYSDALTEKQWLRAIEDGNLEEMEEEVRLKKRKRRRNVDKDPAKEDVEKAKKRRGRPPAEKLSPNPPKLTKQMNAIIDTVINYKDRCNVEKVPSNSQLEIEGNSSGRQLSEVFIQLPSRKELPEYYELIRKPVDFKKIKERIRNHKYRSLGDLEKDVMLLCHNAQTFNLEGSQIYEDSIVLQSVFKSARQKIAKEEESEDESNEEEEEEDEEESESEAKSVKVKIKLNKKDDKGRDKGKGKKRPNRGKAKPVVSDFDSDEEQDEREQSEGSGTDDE
T2 sequence (P51532 whole entry): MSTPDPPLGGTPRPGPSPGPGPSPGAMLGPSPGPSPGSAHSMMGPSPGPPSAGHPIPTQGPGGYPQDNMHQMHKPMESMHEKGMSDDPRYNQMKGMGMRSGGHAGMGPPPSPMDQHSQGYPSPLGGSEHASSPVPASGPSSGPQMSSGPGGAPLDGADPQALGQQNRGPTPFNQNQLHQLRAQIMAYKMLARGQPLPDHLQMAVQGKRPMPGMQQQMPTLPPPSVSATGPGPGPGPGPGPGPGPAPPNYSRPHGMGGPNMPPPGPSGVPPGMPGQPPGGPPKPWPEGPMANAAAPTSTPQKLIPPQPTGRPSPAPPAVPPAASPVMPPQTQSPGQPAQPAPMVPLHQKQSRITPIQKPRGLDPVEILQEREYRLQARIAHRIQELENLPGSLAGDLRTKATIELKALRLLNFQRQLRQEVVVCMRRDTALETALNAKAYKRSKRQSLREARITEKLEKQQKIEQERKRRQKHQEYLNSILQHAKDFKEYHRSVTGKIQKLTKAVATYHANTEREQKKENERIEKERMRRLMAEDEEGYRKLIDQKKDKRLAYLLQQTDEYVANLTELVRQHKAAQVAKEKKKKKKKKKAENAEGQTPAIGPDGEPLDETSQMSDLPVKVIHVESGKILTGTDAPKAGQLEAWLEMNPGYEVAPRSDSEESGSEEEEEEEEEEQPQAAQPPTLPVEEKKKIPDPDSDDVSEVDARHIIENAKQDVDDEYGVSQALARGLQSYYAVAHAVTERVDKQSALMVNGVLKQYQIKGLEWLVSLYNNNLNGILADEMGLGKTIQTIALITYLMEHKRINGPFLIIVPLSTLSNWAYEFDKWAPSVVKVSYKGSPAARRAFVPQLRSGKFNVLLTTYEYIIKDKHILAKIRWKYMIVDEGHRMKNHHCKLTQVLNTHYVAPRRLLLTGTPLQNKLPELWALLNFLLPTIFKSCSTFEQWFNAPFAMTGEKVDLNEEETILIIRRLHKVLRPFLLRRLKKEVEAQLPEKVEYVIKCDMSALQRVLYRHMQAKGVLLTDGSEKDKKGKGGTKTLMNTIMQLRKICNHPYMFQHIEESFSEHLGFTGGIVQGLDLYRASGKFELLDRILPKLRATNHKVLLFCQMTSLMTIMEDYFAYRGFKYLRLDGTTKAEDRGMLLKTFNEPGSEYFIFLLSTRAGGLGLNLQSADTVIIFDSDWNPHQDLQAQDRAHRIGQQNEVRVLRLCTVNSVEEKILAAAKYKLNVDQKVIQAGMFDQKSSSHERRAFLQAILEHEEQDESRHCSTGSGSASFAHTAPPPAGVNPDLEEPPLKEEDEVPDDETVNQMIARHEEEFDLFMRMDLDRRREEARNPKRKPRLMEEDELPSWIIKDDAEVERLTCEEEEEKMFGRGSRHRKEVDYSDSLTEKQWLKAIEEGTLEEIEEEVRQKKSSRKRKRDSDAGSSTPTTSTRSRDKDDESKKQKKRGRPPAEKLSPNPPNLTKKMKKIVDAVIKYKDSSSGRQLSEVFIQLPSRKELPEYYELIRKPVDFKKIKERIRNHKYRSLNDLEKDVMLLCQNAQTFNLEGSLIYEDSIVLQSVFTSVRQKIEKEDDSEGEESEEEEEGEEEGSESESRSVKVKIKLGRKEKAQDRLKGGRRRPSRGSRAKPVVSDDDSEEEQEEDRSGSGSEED

Turning to `O=C1CCC(N2C(=O)c3cccc(N4CCC(CCCN5C6CCC5CC(N5CCN7c8cc(-c9ccccc9O)nnc8NC[C@H]7C5)C6)CC4)c3C2=O)C(=O)N1` (stereo partly drawn) [Example 125, 2-(2,6-dioxopiperidin-3-yl)-4-(4-(3-(3-((S)-2-(2-hydroxyphenyl)-5,6,6a,7,9,10-hexahydro-8H-pyrazino[1′,2′:4,5]pyrazino[2,3-c]pyridazin-8-yl)-8-azabicyclo[3.2.1]octan-8-yl)propyl)piperidin-1-yl)isoindoline-1,3-dione], in experiment [1], the DC50 (in general, the midpoint of the concentration-degradation curve) is below 10 nM and the Dmax (commonly the greatest extent of degradation seen) fell in the range of 75 to 85%. In experiment [2], the DC50 was below 10 nM and the Dmax was 75 to 85%.
For the molecule `CC1CC(N2CCN3c4cc(-c5ccccc5O)nnc4NC[C@H]3C2)CCN1CCCC1CCN(c2cccc3c2C(=O)N(C2CCC(=O)NC2=O)C3=O)CC1` (stereo partly drawn) [Example 126, 2-(2,6-dioxopiperidin-3-yl)-4-(4-(3-(4-((S)-2-(2-hydroxyphenyl)-5,6,6a,7,9,10-hexahydro-8H-pyrazino[1′,2′:4,5]pyrazino[2,3-c]pyridazin-8-yl)-2-methylpiperidin-1-yl)propyl)piperidin-1-yl)isoindoline-1,3-dione], the DC50 in experiment [1] and in experiment [2] was below 10 nM in each case. The Dmax was above 85% in experiment [1] and 75 to 85% in experiment [2].
For the molecule `O=C1CCC(N2C(=O)c3cccc(N4CCC(CN5CCC(CN6CCN7c8cc(-c9ccccc9O)nnc8NC[C@H]7C6)CC5)CC4)c3C2=O)C(=O)N1` (stereo partly drawn) [Example 127, 2-(2,6-dioxopiperidin-3-yl)-4-(4-((4-(((S)-2-(2-hydroxyphenyl)-5,6,6a,7,9,10-hexahydro-8H-pyrazino[1′,2′:4,5]pyrazino[2,3-c]pyridazin-8-yl)methyl)piperidin-1-yl)methyl)piperidin-1-yl) isoindoline-1,3-dione], the DC50 in experiment [1] and in experiment [2] was below 10 nM each time. Also, the Dmax in experiment [1] is above 85%; in experiment [2] it was 75 to 85%.
As to `CCC1Nc2nnc(-c3ccccc3O)cc2N2CCN(CC3CCN(CC4CCN(c5ccc6c(c5)C(=O)N(C5CCC(=O)NC5=O)C6=O)CC4)CC3)CC12` (centres unmarked) [Example 128, 2-(2,6-dioxopiperidin-3-yl)-5-(4-((4-((6-ethyl-2-(2-hydroxyphenyl)-5,6,6a,7,9,10-hexahydro-8H-pyrazino[1′,2′:4,5]pyrazino[2,3-c]pyridazin-8-yl)methyl)piperidin-1-yl)methyl)piperidin-1-yl)isoindoline-1,3-dione], in experiment [1], the DC50 was below 10 nM and the Dmax was above 85%. Also, in experiment [2], the DC50 is below 10 nM and the Dmax is above 85%.
Regarding `O=C1CCC(N2C(=O)c3ccc(N4CCC(CN5CCC(CN6CCN7c8cc(-c9ccccc9O)nnc8NC[C@H]7C6)CC5)CC4)cc3C2=O)C(=O)N1COP(=O)(O)O` (stereo partly drawn) [Example 129, (3-(5-(4-((4-(((S)-2-(2-hydroxyphenyl)-5,6,6a,7,9,10-hexahydro-8H-pyrazino[1′,2′:4,5]pyrazino[2,3-c]pyridazin-8-yl)methyl)piperidin-1-yl)methyl)piperidin-1-yl)-1,3-dioxoisoindolin-2-yl)-2,6-dioxopiperidin-1-yl)methyl) dihydrogen phosphate], in experiment [1], the DC50 is below 10 nM and the Dmax was above 85%. Besides, in experiment [2], the DC50 is below 10 nM and the Dmax was above 85%.
For `O=C1CCC(N2C(=O)c3ccc(N4CCC(CN5CCC(CN6CCN7c8cc(-c9ccccc9O)nnc8NC[C@H]7C6)CC5)CC4)cc3C2=O)C(=O)N1COC(=O)C1(O)CC1` (stereo partly drawn) [Example 130, (3-(5-(4-((4-(((S)-2-(2-hydroxyphenyl)-5,6,6a,7,9,10-hexahydro-8H-pyrazino[1′,2′:4,5]pyrazino[2,3-c]pyridazin-8-yl)methyl)piperidin-1-yl)methyl)piperidin-1-yl)-1,3-dioxoisoindolin-2-yl)-2,6-dioxopiperidin-1-yl)methyl-1-hydroxycyclopropane-1-carboxylate], in experiment [1], the 50% degradation concentration (DC50) was below 10 nM and the Dmax is above 85%. Besides, in experiment [2], the DC50 is below 10 nM and the Dmax was above 85%.
For the molecule `NC1(C(=O)OCN2C(=O)CCC(N3C(=O)c4ccc(N5CCC(CN6CCC(CN7CCN8c9cc(-c%10ccccc%10O)nnc9NC[C@H]8C7)CC6)CC5)cc4C3=O)C2=O)CC1` (stereo partly drawn) [Example 131, (3-(5-(4-((4-(((S)-2-(2-hydroxyphenyl)-5,6,6a,7,9,10-hexahydro-8H-pyrazino[1′,2′:4,5]pyrazino[2,3-c]pyridazin-8-yl)methyl)piperidin-1-yl)methyl)piperidin-1-yl)-1,3-dioxoisoindolin-2-yl)-2,6-dioxopiperidin-1-yl)methyl 1-aminocyclopropane-1-carboxylate], in experiment [1], the DC50 is below 10 nM and the Dmax was above 85%. Further, in experiment [2], the DC50 was below 10 nM and the Dmax is above 85%.
Consider `O=C1CCC(N2C(=O)c3ccc(N4CCC(CN5CC6COCC(C5)C6CN5CCN6c7cc(-c8ccccc8O)nnc7NC[C@H]6C5)CC4)cc3C2=O)C(=O)N1` (stereo partly drawn) [Example 132, 2-(2,6-dioxopiperidin-3-yl)-5-(4-((9-(((S)-2-(2-hydroxyphenyl)-5,6,6a,7,9,10-hexahydro-8H-pyrazino[1′,2′:4,5]pyrazino[2,3-c]pyridazin-8-yl)methyl)-3-oxa-7-azabicyclo[3.3.1]nonan-7-yl)methyl)piperidin-1-yl)isoindoline-1,3-dione], for which, in experiment [1], the half-maximal degradation concentration (DC50) was below 10 nM and the Dmax is above 85%. In experiment [2], the DC50 was below 10 nM and the Dmax was in the range of 75 to 85%.
Consider `O=C1CCC(N2C(=O)c3ccc(N4CCC(CN5C6COCC5CC(CN5CCN7c8cc(-c9ccccc9O)nnc8NC[C@H]7C5)C6)CC4)cc3C2=O)C(=O)N1` (stereo partly drawn) [Example 133, 2-(2,6-dioxopiperidin-3-yl)-5-(4-((7-(((S)-2-(2-hydroxyphenyl)-5,6,6a,7,9,10-hexahydro-8H-pyrazino[1′,2′:4,5]pyrazino[2,3-c]pyridazin-8-yl)methyl)-3-oxa-9-azabicyclo[3.3.1]nonan-9-yl)methyl)piperidin-1-yl)isoindoline-1,3-dione], for which the DC50 in experiment [1] and in experiment [2] was below 10 nM throughout. The Dmax in experiment [1] and in experiment [2] was 50 to 75% each time.
In the case of `O=C1CCC(N2C(=O)c3ccc(N4CCC(CNC56CC(CN7CCN8c9cc(-c%10ccccc%10O)nnc9NC[C@H]8C7)(C5)C6)CC4)cc3C2=O)C(=O)N1` (stereo partly drawn) [Example 134, 2-(2,6-dioxopiperidin-3-yl)-5-(4-(((3-(((S)-2-(2-hydroxyphenyl)-5,6,6a,7,9,10-hexahydro-8H-pyrazino[1′,2′:4,5]pyrazino[2,3-c]pyridazin-8-yl)methyl)bicyclo[1.1.1]pentan-1-yl)amino)methyl)piperidin-1-yl)isoindoline-1,3-dione], in experiment [1], the DC50 was below 10 nM and the Dmax lay in the range of 75 to 85%. Besides, in experiment [2], the DC50 is below 10 nM and the Dmax is 50 to 75%.
Consider `O=C1CCC(N2C(=O)c3ccc(N4CCC(NC56CC(CN7CCN8c9cc(-c%10ccccc%10O)nnc9NC[C@H]8C7)(C5)C6)CC4)cc3C2=O)C(=O)N1` (stereo partly drawn) [Example 135, 2-(2,6-dioxopiperidin-3-yl)-5-(4-((3-(((S)-2-(2-hydroxyphenyl)-5,6,6a,7,9,10-hexahydro-8H-pyrazino[1′,2′:4,5]pyrazino[2,3-c]pyridazin-8-yl)methyl)bicyclo[1.1.1]pentan-1-yl)amino)piperidin-1-yl)isoindoline-1,3-dione], for which, in experiment [1], the DC50 is below 10 nM and the Dmax lay in the range of 75 to 85%. Also, in experiment [2], the DC50 was below 10 nM and the Dmax lay in the range of 50 to 75%.
Take `O=C1CCC(N2C(=O)c3ccc(N4CCC(CN5CC6CC5CC6CN5CCN6c7cc(-c8ccccc8O)nnc7NC[C@H]6C5)CC4)cc3C2=O)C(=O)N1` (stereo partly drawn) [Example 136, 2-(2,6-dioxopiperidin-3-yl)-5-(4-((5-(((S)-2-(2-hydroxyphenyl)-5,6,6a,7,9,10-hexahydro-8H-pyrazino[1′,2′:4,5]pyrazino[2,3-c]pyridazin-8-yl)methyl)-2-azabicyclo[2.2.1]heptan-2-yl)methyl)piperidin-1-yl) isoindoline-1,3-dione]: in experiment [1], the DC50 is below 10 nM and the Dmax is above 85%. In experiment [2], the DC50 was below 10 nM and the Dmax is above 85%.
As to `O=C1CCC(N2C(=O)c3ccc(N4CCC(CN5CCC(S(=O)(=O)N6CCN7c8cc(-c9ccccc9O)nnc8NC[C@H]7C6)CC5)CC4)cc3C2=O)C(=O)N1` (stereo partly drawn) [Example 137, 2-(2,6-dioxopiperidin-3-yl)-5-(4-((4-(((S)-2-(2-hydroxyphenyl)-5,6,6a,7,9,10-hexahydro-8H-pyrazino[1′,2′:4,5]pyrazino[2,3-c]pyridazin-8-yl)sulfonyl)piperidin-1-yl)methyl)piperidin-1-yl)isoindoline-1,3-dione], in experiment [1], the DC50 is below 10 nM and the Dmax lay in the range of 50 to 75%. Besides, in experiment [2], the DC50 is 10 to 100 nM and the Dmax lay in the range of 50 to 75%.
In the case of `CN(C(=O)N1CCN2c3cc(-c4ccccc4O)nnc3NC[C@H]2C1)C1CCN(CC2CCN(c3ccc4c(c3)C(=O)N(C3CCC(=O)NC3=O)C4=O)CC2)CC1` (stereo partly drawn) [Example 138, (6aS)-N-(1-((1-(2-(2,6-dioxopiperidin-3-yl)-1,3-dioxoisoindolin-5-yl)piperidin-4-yl)methyl)piperidin-4-yl)-2-(2-hydroxyphenyl)-N-methyl-5,6,6a,7,9,10-hexahydro-8H-pyrazino[1′,2′:4,5]pyrazino[2,3-c]pyridazine-8-carboxamide], in experiment [1], the DC50 was below 10 nM and the Dmax is above 85%. In experiment [2], the DC50 is below 10 nM and the Dmax is above 85%.
